For 72 compounds, EC50, IC50 and outcome results are on record in PubChem BioAssay AID179 (DTP/NCI, 2004).

This test concerns CEM cells HIV-1 protection, formazan growth assay. Briefly: NCI AIDS Antiviral Assay. To be noted: for IC50: measured here: growth of uninfected CEM cells. In a few lines: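 CEM (human) cells, HIV-1 infected vs uninfected, 5-point dosing, formazan growth read-out. Retest threshold 50% protection.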

“And” between values parts separate entries of the source, which are not always exact repeats. Equal values may be shown once. The source made the active and inactive calls.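 Rule for the calls: active = compounds giving half or more protection of infected cells from virus-caused growth loss, again on retest; inactive = the rest.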

A word on the EC50: it is the concentration that produces a half-maximal response. A word on the IC50: it is the concentration needed to halve the response being measured. Low values mean inhibition by little substance, high ones a need for much substance. Regarding `COc1cc(-c2nc(N)c(C#N)c3c2CCS(=O)(=O)c2ccc(C)cc2-3)cc(OC)c1OC`, the EC50 was more than 200 µM and the IC50 was more than 200 µM.
For `O=C1NC(Cc2ccc(O)c(O)c2)C(=O)N2CCCC12` (configuration not stated), the EC50 is more than 200 µM and the IC50 was more than 200 µM.
Take `O=S(=O)(c1ccccc1)C(CN1CCCCC1)S(=O)(=O)c1ccccc1`: the result was inactive.
Take `O=C1C=C(N2CCOCC2)c2cnccc2C1=O`: the outcome was inactive.
With `CCCCSc1ccc2n(C)c(-c3ccc(/C=N\NC(=O)c4ccc(C(=O)N/N=C\c5ccc(-c6c[n+]7cc(SCCCC)ccc7n6C)cc5)cc4)cc3)c[n+]2c1`, the EC50 is 3.24 µM and the IC50 came out at 6.31 µM.
For `COc1ccc(C(=O)/C(Br)=C/C(=O)O)cc1`, the EC50 was more than 427 µM and the IC50 was found to be 22.9 µM.
`CN1CN(c2ccccc2)C2(CCN(CCCCCCF)CC2)C1=O`: the EC50 was more than 200 µM and the IC50 came out at 107 µM.
As to `O=c1cc(-c2ccccc2)nc(/C=C(\O)c2ccncc2)n1-c1ccccc1`, the EC50 is more than 3.98 µM and the IC50 was more than 3.98 µM.
On to `CC1(O)OC(=O)c2ccc3ccccc3c21` (configuration not stated), for which the EC50 was more than 398 µM and the IC50 is more than 398 µM.
For `Cc1cn(C2CC3C(COC(C)(C)N3O)O2)c(=O)[nH]c1=O` (configuration not stated), the EC50 is 7.76 µM and the IC50 is more than 200 µM.
Take `CN(C)C12C=CC=CC3=C(c4ccccc4)C(c4ccccc4)=C(c4ccccc4)C31c1ccccc1C2` (configuration not stated): the EC50 was more than 200 µM and the IC50 is more than 200 µM.
As to `Nc1ccn(C2OC(CO)C(O)C2Br)c(=O)n1` (configuration not stated), the EC50 was more than 200 µM and the IC50 was 0.0631 µM.
Consider `O=C1C=Cc2cc(Br)ccc2C12CCc1c(O)ccc3cc(Br)cc2c13` (configuration not stated), for which the result was inactive.
As to `O=C1CC2OCC=C3CN4CCC5(C(=O)O)C(N1)C2C3CC45` (configuration not stated), the EC50 is more than 813 µM and the IC50 was more than 813 µM.
As to `O=c1cc(NCC2CCCCC2)[nH]c(=O)[nH]1`, the EC50 was more than 200 µM and the IC50 was more than 200 µM.
`O=C1CNN=C(Cn2nc(-c3ccccc3)c3ccccc3c2=O)N1`: the EC50 is more than 6.03 µM and the IC50 is more than 6.03 µM.
Consider `O=C1CC(c2ccc(Cl)cc2)NC(=O)N1CCCl` (configuration not stated), for which the EC50 was more than 200 µM and the IC50 was more than 200 µM.
On to `CS(=O)(=O)c1nc(Cl)c(Cl)c(C#N)c1Cl`, for which the EC50 is more than 200 µM and the IC50 is 0.457 µM.
Take `CC1Cc2c([nH]c3ccccc3c2=O)O1` (configuration not stated): the EC50 is more than 1230 µM and the IC50 was 724 µM.
For the compound `O=C(NC1CCCCC1)c1n[nH]nc1Cl`, the EC50 is more than 200 µM and the IC50 is more than 200 µM.
For the compound `COc1ccc(C(=O)CCN(C)C)cc1`, the EC50 is more than 200 µM and the IC50 came to 36.3 µM.
On to `O=[N+]([O-])/C=C1\COCc2cc3c(cc21)OCO3`, for which the EC50 was more than 200 µM and the IC50 came out at 28.8 µM.
As to `Cc1c2ccccc2nc(CSCCO)[n+]1[O-]`, the EC50 was more than 200 µM and the IC50 was more than 200 µM.
`O=C(O)c1cccc(P(=O)(O)O)c1`: the EC50 was more than 200 µM and the IC50 was more than 200 µM.
Regarding `O=C(O)c1ccc(N=Nc2cc(S(=O)(=O)O)c3cccnc3c2O)cc1`, the EC50 was more than 19.5 µM and the IC50 is more than 19.5 µM.
Take `CCn1c(SCC(=O)NNC(=S)Nc2ccc([N+](=O)[O-])cc2)nc2ccccc2c1=O`: the EC50 is more than 200 µM and the IC50 was 83.2 µM.
As to `Cc1cn(C2CC(N=[N+]=[N-])C(COC(=O)CCCCCCCCCc3ccccc3)O2)c(=O)[nH]c1=O` (configuration not stated), the EC50 was 0.129 µM and the IC50 is 110 µM.
As for `O=c1[nH]c(=O)n(C2CC(O)C(CO)O2)cc1OS(=O)(=O)C(F)(F)F` (configuration not stated), the EC50 was more than 661 µM and the IC50 is 9.77 µM.
Consider `O=C(O)c1nc2ccccc2n2cccc12`, for which the EC50 was more than 200 µM and the IC50 is more than 200 µM.
Take `CC(C)(O)S(=O)(=O)O`: the EC50 is more than 200 µM and the IC50 was more than 200 µM.
For `CSc1ccc(/C=C2\CNC/C(=C\c3ccc(SC)cc3)C2=O)cc1`, the EC50 is more than 200 µM and the IC50 was found to be 58.9 µM.
For `Cc1cn(C2CC3OP(=O)(C(C)(C)C#N)OCC3O2)c(=O)[nH]c1=O` (configuration not stated), the EC50 is more than 708 µM and the IC50 amounted to 447 µM.
With `CCOC(=O)CN1C(=O)c2c(NC(=O)C(=O)O)cccc2S1(=O)=O`, the EC50 was more than 200 µM and the IC50 is more than 200 µM.
In the case of `CC1=NN(C(=O)CC(=O)Nc2cccc(Cl)c2)C(=O)C1N=Nc1ccc(S(N)(=O)=O)cc1` (configuration not stated), the EC50 was more than 55 µM and the half-maximal inhibitory concentration (IC50) is more than 55 µM.
In the case of `COC(=O)c1ccccc1/C=C1\Cc2ccc3ccccc3c2C1C` (configuration not stated), the EC50 is more than 200 µM and the IC50 is more than 200 µM.
As for `O=C1CC(C(=O)N2CCCCC2)n2c(=O)n(-c3ccccc3)c(=O)n2C1` (configuration not stated), the EC50 was more than 200 µM and the IC50 was more than 200 µM.
In the case of `CC(=O)OC1C(O)C(C)OC(OC2C(OC(=O)C3CCC4C(C3)OC3(CC(OC(=O)/C=C/c5ccccc5)C(C)CO3)C43CO3)OC(C)C(O)C2OC(C)=O)C1O` (configuration not stated), the EC50 was more than 1.55 µM and the IC50 stood at 0.0012 µM.
Turning to `NC(=O)c1ncn(CCCCCO)c1N`, the EC50 was more than 200 µM and the IC50 was more than 200 µM.
`Cn1c(=O)cc(C=Nc2ccc(C(=O)O)cc2)c2ccccc21`: the EC50 was more than 200 µM and the IC50 stood at 1.32 µM.
Turning to `N#Cc1nn(-c2ccc(Cl)cc2)c(N)c2c(=N)n3nc(-c4ccccc4)cc3nc12`, the EC50 was more than 9.12 µM and the IC50 was more than 9.12 µM.
Turning to `O=C1NC(=O)/C(=C\c2cccc(O)c2)N1`, the EC50 was more than 200 µM and the IC50 is more than 200 µM.
As for `CCCCc1c2c(nc3c1CCc1cc4cc5c(nc4nc1-3)-c1nc3c(c(CCCC)c1CC5)CCC/C3=N/OC)/C(=N\OC)CCC2`, the EC50 was more than 100 µM and the IC50 worked out at 0.347 µM.
The matching figures for `Cc1cc(NS(=O)(=O)c2ccc(Nc3c4ccccc4nc4c(C(=O)Nc5ccc(S(N)(=O)=O)cc5)cccc34)cc2)no1`: 25.1 µM and 50.1 µM.
Regarding `O=[N+]([O-])c1ccc(Sc2c3ccccc3nc3ccccc23)cn1`, the EC50 was more than 100 µM and the half-inhibitory concentration (IC50) worked out at 7.24 µM.
The matching figures for `CN(C)CN(C)c1nc(N(C)C)nc(N(C)CN(C)C)n1`: more than 200 µM and 32.4 µM.
Take `CN1CCc2cc(O)c3cc2C1Cc1ccc(cc1)Oc1cc(ccc1O)CC1c2c(cc4c(c2O3)OCO4)CCN1C` (configuration not stated): the outcome was inactive.
As to `C=CCN=C1NC(=O)C(CC(=O)Nc2cccc(Cl)c2)S1` (configuration not stated), the EC50 is more than 288 µM and the IC50 was more than 288 µM.
With `C=C(C)C1CC2=C(C(=O)OC)C=C(O2)C(C(=C)C)[C@@H]2OC(=O)/C(=C\C1O)[C@H]2N(C)C` (some centres not stated), the EC50 was more than 20 µM and the IC50 was determined as 5.01 µM.
`CN1C(=S)C2=C(c3ccccc3)N(C)C(=S)C2=C1c1ccccc1`: the EC50 is 102 µM and the IC50 was more than 200 µM.
With `CC1(C)C2(C(N)=O)C(=O)NC(=O)C12C(=O)O` (configuration not stated), the EC50 was more than 200 µM and the IC50 was more than 200 µM.
`Cn1c2ccccc2c2nnc(N/N=C/c3ccccn3)nc21`: the EC50 was more than 200 µM and the IC50 turned out to be 0.115 µM.
In the same order, the values of `N#C/C(=C\c1ccc(Cl)cc1)C(=O)c1ccccc1` are more than 83.2 µM and more than 83.2 µM.
With `C[C@]12C=CC(=O)C=C1CC[C@@H]1[C@@H]2CC[C@]2(C)OC(=O)CC[C@@H]12`, the EC50 was more than 832 µM and the IC50 was determined as 224 µM.
Consider `CC1(C)[C@H]2CC[C@]1(C)[C@H](OC(=O)NNC(=O)O[C@@H]1C[C@@H]3CC[C@@]1(C)C3(C)C)C2`, for which the EC50 is more than 200 µM and the IC50 was determined as 12.6 µM.
As for `O=C1/C(=C/c2ccc(O)c(CN3CCCCC3)c2)CCC/C1=C\c1ccc(O)c(CN2CCCCC2)c1`, the outcome was inactive.
Turning to `COc1ccc(NC(C)=O)cc1N1C(=O)/C(=C\c2cccc(Oc3ccccc3)c2)SC1c1ccccc1` (configuration not stated), the EC50 was more than 200 µM and the IC50 was determined as 18.6 µM.
In the same order, the values of `COc1ccc(-c2cc(-c3ccccc3)c(C#N)c(=O)n2C2OC(COC(C)=O)C(OC(C)=O)C(OC(C)=O)C2OC(C)=O)cc1` (configuration not stated) are more than 15.8 µM and more than 15.8 µM.
Take `COc1cc(C2C(Cl)C(=O)N2NC(=O)c2ccc(N)cc2)cc(Br)c1O` (configuration not stated): the EC50 was more than 200 µM and the IC50 worked out at 13.2 µM.
With `O=C(O)c1cc(N=C=S)ccc1-c1c2ccc(=O)cc-2oc2cc(O)ccc12`, the EC50 was 43.7 µM and 44.7 µM; the IC50 was 316 µM and > 100 µM.
As for `N=C(N)SCc1cn2ccccc2n1`, the EC50 is more than 891 µM and the IC50 stood at 50.1 µM.
In the same order, the values of `Cn1c2ccccc2c(=NNc2ccc(S(=O)(=O)N=C(N)N)cc2)c2ccccc21` are more than 200 µM and 5.5 µM.
Take `CCCN(CCC)C(=O)c1nc(N)nc(-c2ccc(OC)cc2)c1-c1ccc(OC)cc1`: the EC50 was more than 16.6 µM and the IC50 is more than 16.6 µM.
Take `CCCCN(CCCC)C1CCC(Nc2ccnc3cc(Cl)ccc23)CC1` (configuration not stated): the EC50 is more than 200 µM and the IC50 is 25.7 µM.
Consider `CC(C)(C)C(=O)N1C(C(=O)O)Cc2ccccc2[C@@H]1Cc1ccccc1` (some centres not stated), for which the EC50 is more than 74.1 µM and the IC50 is more than 74.1 µM.
Turning to `COc1ccc(OC(C)C(=O)O)c2c(=O)ccccc12` (configuration not stated), the outcome was inactive.
As for `c1ccc(C2=NC3OC2c2ccccc23)cc1` (configuration not stated), the EC50 is more than 200 µM and the IC50 is more than 200 µM.
Take `N#C/C(=C\NC(=S)C(N)=S)C(=O)c1ccc2ccccc2c1`: the EC50 was more than 200 µM and the IC50 is 58.9 µM.
The matching figures for `NC(N)=NNC(=O)CCn1[nH]c(=O)c(Cl)c(Cl)c1=O`: more than 813 µM and more than 813 µM.
Consider `O=S(=O)(CC#CCO)c1cccc2ccccc12`, for which the result was inactive.
Consider `Cc1cn(CC2OC(CO)C(CO)O2)c(=O)[nH]c1=O` (configuration not stated), for which the EC50 is more than 457 µM and the IC50 is more than 457 µM.
For `COC(=O)c1ccccc1/C=C1\Cc2cc(C)c(C)cc2C1=O`, the EC50 was more than 100 µM and the 50% inhibitory concentration (IC50) is more than 100 µM.
`CCOc1ccc(C(=O)Nc2ccc(C3=NCCN3)cc2)cc1C(=O)Nc1ccc(C2=NCCN2)cc1`: the EC50 is 2.95 µM and the IC50 was found to be 117 µM.
